Source: ChEMBL document CHEMBL6178017, “Intercepting the Downstream of the Estrogen Receptor Signaling Pathway: Discovery of a Potent and Efficient SRC-3 PROTAC Degrader for Overcoming Endocrine Resistance Breast Cancer” (J Med Chem, 2025)
The source made the active and inactive calls. The rule behind the calls is not given here.

Columns and labels:
MCF7 [1] = test: Antiproliferative activity against human MCF7 cells harboring ER-alpha D538G mutant assessed as inhibition of cell growth by CCK8 assay; type: functional, cell-based
MCF7 [2] = test: Antiproliferative activity against human MCF7 cells harboring ER-alpha Y537S mutant assessed as inhibition of cell growth by CCK8 assay; type: functional, cell-based
MCF7 [3] = test: Antiproliferative activity against human MCF7 cells assessed as inhibition of cell growth by CCK8 assay; type: functional, cell-based
[4] = Antiproliferative activity against tamoxifen-resistant human LCC2 cells assessed as inhibition of cell growth by CCK8 assay; type: functional, cell-based
[5] = biological target: T1, Protein cereblon/Nuclear receptor coactivator 3 (Homo sapiens, UniProt Q9Y6Q9+Q96SW2); test: PROTAC activity at CRBN/SRC-3 in human MCF7 cells assessed as induction of SRC-3 degradation at 1 uM incubated for 24 hrs by immunoblot analysis relative to control; type: cell-based
[6] = biological target: T1, Protein cereblon/Nuclear receptor coactivator 3; test: PROTAC activity at CRBN/SRC-3 in human MCF7 cells assessed as induction of ER-alpha degradation at 1 uM incubated for 24 hrs by immunoblot analysis relative to control; type: cell-based
[7] = Half life of the compound in human plasma by LC-MS/MS analysis; type: ADME, cell-free
[8] = biological target: T2, von Hippel-Lindau disease tumor suppressor/Nuclear receptor coactivator 3 (Homo sapiens) (UniProt Q9Y6Q9+P40337); test: PROTAC activity at VHL/SRC-3 in human MCF7 cells assessed as induction of SRC-3 degradation at 1 uM incubated for 24 hrs by immunoblot analysis relative to control; type: cell-based
[9] = biological target: T2, von Hippel-Lindau disease tumor suppressor/Nuclear receptor coactivator 3 (Homo sapiens); test: PROTAC activity at VHL/SRC-3 in human MCF7 cells assessed as induction of […] degradation at 1 uM incubated for 24 hrs by immunoblot analysis relative to control; type: cell-based
MCF-10A = test: Cytotoxicity against human MCF-10A cells assessed as cell growth by CCK-8 assay; type: toxicity, cell-based
MCF7 [10] = test: Induction of ER-alpha degradation in human MCF7 cells at 1 uM incubated for 24 hrs by immunoblot analysis relative to control; type: cell-based
MCF7 [11] = test: Induction of SRC-3 degradation in human MCF7 cells at 1 uM incubated for 24 hrs by immunoblot analysis relative to control; type: cell-based
[12] = Metabolic stability of the compound in human plasma measured after 2 hrs by LC-MS/MS analysis; type: ADME, cell-free; conditions: read-out: Stability
[13] = biological target: T1, Protein cereblon/Nuclear receptor coactivator 3; test: PROTAC activity at CRBN/SRC-3 in human MCF7 cells assessed as maximal induction of SRC-3 degradation at 1 uM incubated for 36 hrs by immunoblot analysis; type: cell-based
[14] = biological target: T1, Protein cereblon/Nuclear receptor coactivator 3; test: PROTAC activity at CRBN/SRC-3 in tamoxifen-resistant human LCC2 cells assessed as maximal induction of SRC-3 degradation at 1 uM incubated for 36 hrs by immunoblot analysis; type: cell-based; conditions: Tamoxifen-resistant LCC2 cell
LNCaP = test: Antiproliferative activity against human LNCaP cells assessed as inhibition of cell growth by CCK-8 assay; type: functional, cell-based
[15] = system: Tamoxifen-resistant LCC2 cell; test: Antitumor activity against tamoxifen-resistant human LCC2 cells xenografted in Balb/c mouse assessed as inhibition of tumor growth at 3 uM/Kg, ip administered once every 2 days for 23 days; type: functional, organism-based; conditions: time 23.0 day

T2 sequence (P40337 whole entry, looked up): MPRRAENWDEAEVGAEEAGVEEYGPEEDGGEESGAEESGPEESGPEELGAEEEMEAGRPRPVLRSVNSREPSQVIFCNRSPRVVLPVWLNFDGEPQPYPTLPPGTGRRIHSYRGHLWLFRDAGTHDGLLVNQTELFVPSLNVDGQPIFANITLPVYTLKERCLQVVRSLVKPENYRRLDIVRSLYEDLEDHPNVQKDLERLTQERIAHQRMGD
T2 sequence (Q9Y6Q9 whole entry, looked up): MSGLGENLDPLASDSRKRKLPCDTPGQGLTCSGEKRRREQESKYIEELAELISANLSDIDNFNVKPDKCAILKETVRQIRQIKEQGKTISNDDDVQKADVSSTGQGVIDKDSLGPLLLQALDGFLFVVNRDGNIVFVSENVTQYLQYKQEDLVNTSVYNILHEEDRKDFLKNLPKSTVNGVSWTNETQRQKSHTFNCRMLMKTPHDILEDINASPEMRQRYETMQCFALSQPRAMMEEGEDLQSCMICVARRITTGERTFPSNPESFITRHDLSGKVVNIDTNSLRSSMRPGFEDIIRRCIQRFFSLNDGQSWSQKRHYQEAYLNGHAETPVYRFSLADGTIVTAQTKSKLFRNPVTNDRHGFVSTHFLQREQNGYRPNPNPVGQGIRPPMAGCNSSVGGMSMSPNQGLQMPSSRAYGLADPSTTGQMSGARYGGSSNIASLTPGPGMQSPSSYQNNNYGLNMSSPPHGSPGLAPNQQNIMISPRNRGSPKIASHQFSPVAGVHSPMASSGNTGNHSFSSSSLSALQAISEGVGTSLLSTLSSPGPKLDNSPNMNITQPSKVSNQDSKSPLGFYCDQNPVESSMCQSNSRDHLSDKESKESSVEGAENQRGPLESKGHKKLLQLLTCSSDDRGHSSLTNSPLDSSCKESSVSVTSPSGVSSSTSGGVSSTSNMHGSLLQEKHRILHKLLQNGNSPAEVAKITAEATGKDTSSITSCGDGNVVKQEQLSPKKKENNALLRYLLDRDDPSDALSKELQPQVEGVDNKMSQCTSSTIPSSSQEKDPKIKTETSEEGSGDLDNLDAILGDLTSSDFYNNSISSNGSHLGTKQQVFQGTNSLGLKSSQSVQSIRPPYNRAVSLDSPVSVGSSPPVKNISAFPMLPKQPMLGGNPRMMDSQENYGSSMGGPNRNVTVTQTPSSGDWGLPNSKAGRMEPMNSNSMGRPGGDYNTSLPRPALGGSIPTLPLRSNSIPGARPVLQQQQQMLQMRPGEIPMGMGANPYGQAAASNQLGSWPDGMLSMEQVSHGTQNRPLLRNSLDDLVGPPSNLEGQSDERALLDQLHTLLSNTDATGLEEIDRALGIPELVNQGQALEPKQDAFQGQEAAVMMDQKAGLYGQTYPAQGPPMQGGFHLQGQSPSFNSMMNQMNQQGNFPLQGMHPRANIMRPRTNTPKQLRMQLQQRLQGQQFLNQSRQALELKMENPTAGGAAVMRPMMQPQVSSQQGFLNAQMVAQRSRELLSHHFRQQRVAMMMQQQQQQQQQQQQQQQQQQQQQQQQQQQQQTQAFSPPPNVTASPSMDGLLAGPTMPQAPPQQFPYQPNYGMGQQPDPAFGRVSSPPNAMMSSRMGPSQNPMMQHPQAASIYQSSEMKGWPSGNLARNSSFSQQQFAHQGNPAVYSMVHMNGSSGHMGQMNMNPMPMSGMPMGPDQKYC
T1 sequence (Q96SW2 whole entry partner): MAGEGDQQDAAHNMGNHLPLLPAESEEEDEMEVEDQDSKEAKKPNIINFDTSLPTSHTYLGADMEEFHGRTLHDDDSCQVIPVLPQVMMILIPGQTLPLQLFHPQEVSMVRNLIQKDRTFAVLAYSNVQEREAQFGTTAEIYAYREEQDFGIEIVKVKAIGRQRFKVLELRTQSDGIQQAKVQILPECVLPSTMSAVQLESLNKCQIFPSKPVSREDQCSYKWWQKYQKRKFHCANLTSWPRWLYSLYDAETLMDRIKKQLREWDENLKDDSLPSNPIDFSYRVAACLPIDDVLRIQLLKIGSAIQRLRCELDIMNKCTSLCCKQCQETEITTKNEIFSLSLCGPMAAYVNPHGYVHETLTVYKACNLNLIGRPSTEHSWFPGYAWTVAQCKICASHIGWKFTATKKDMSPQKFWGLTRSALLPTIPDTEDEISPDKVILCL
T1 sequence (Q9Y6Q9 2-1424 limits assumed): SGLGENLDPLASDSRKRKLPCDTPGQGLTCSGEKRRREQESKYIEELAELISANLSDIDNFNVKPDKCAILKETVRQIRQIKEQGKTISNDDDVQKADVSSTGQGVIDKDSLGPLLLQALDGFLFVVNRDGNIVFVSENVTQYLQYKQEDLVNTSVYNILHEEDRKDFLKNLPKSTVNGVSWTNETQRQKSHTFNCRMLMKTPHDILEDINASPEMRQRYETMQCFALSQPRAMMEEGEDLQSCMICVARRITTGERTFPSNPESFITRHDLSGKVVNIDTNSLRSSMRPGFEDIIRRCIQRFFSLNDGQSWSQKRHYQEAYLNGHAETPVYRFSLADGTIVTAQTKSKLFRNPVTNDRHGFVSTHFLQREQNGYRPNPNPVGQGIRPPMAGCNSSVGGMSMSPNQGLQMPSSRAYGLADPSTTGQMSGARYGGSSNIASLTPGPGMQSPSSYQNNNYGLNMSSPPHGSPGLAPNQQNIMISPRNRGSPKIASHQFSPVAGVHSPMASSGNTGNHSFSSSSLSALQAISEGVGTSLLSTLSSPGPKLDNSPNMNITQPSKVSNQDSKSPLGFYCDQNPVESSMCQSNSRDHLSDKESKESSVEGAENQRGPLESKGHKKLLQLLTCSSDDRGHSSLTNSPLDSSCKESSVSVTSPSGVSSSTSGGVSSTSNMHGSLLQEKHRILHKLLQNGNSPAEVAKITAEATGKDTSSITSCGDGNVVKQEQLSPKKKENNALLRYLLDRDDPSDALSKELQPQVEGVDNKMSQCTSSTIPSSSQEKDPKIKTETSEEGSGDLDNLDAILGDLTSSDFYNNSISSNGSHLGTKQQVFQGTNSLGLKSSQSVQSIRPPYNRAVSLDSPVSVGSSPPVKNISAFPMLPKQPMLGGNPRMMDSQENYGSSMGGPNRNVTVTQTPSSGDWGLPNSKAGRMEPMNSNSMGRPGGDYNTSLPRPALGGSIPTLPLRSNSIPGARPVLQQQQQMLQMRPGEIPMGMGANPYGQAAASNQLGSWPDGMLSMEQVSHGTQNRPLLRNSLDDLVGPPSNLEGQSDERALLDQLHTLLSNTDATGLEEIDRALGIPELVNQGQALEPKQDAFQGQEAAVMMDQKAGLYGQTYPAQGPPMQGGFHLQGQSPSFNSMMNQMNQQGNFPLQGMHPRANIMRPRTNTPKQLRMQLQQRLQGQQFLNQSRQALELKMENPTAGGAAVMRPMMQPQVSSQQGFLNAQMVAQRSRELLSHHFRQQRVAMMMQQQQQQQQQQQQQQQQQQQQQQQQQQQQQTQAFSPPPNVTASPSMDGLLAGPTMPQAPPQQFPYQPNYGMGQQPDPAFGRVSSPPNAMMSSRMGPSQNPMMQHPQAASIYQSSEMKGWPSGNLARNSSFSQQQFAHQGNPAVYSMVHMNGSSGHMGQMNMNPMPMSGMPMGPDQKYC

Compound | IC50 (MCF7 [1]) [µM] | IC50 (MCF7 [2]) [µM] | IC50 (MCF7 [3]) [µM] | IC50 [4] [µM] | Activity [5] | Activity [6] | Activity [8] [%] | Activity [9] [%] | Activity (MCF-10A) | further results
CC/C(=C(\c1ccc(O)cc1)c1ccc(OCCN(C)C)cc1)c1ccccc1 [AFIMOXIFENE] | 8.57 | 18.8 | 0.38 | 26.5 |  |  |  |  |  | 
C/C(=N\Nc1nc2ccccc2n1C1CN(C(=O)C2CCN(c3cccc4c3C(=O)N(C3CCC(=O)NC3=O)C4=O)CC2)C1)c1ccccn1 (configuration not stated) | 1.73 | 0.75 | 4.88 | 5.85 | 29% | 15% |  |  |  | 
C/C(=N\Nc1nc2ccccc2n1CC1CN(c2ccc3c(c2)C(=O)N(C2CCC(=O)NC2=O)C3=O)C1)c1ccccn1 (configuration not stated) | 0.29 | 0.32 | 0.37 | 3.11 | inactive | 15% |  |  |  | 
CCN(CC)CCOC(=O)c1ccc(N)cc1 [PROCAINE] |  |  |  |  |  |  |  |  |  | half-life [7]: 0.0303 h
C/C(=N\Nc1nc2ccccc2n1CCNC(=O)CCCCCCCCCCN[C@H](C(=O)N1C[C@H](O)C[C@H]1C(=O)N[C@@H](C)c1ccc(-c2scnc2C)cc1)C(C)(C)C)c1ccccn1 | 0.41 | 0.16 | 0.08 | 1.06 |  |  | 62 | 62 | Non-toxic | 
C/C(=N\Nc1nc2ccccc2n1CCNC(=O)CN1CCC(CN2CCN(c3ccc4c(c3)C(=O)N(C3CCC(=O)NC3=O)C4=O)CC2)CC1)c1ccccn1 (configuration not stated) | 0.85 | 0.5 | 1.23 | 8.74 | 23% | 30% |  |  |  | 
C/C(=N\Nc1nc2ccccc2n1CCNC(=O)CCCCCCCN[C@H](C(=O)N1C[C@H](O)C[C@H]1C(=O)N[C@@H](C)c1ccc(-c2scnc2C)cc1)C(C)(C)C)c1ccccn1 | 0.45 | 0.36 | 0.52 | 1.94 |  |  | 56 | 38 | Non-toxic | 
C/C(=N\Nc1nc2ccccc2n1C1CN(c2ccc3c(c2)C(=O)N(C2CCC(=O)NC2=O)C3=O)C1)c1ccccn1 (configuration not stated) | 0.96 | 0.68 | 0.32 | 4.94 | 10% | inactive |  |  |  | 
C/C(=N\Nc1nc2ccccc2n1CC1CCN(C(=O)CCCCCCCNc2cccc3c2CN(C2CCC(=O)NC2=O)C3=O)CC1)c1ccccn1 (configuration not stated) | 1.26 | 0.93 | 0.84 | 5.03 | 32% | 39% |  |  |  | 
C/C(=N\Nc1nc2ccccc2n1C)c1ccccn1 | 0.77 | 0.004 | 0.47 | 0.6 |  |  |  |  |  | Activity (MCF7 [10]): 86%; Activity (MCF7 [11]): 53%; remaining at 2 h [12]: > 50%; half-life [7]: 2.17 h
C/C(=N\Nc1nc2ccccc2n1CC1CN(c2cccc3c2C(=O)N(C2CCC(=O)NC2=O)C3=O)C1)c1ccccn1 (configuration not stated) | 0.56 | 0.13 | 2.97 | 6.28 | 15% | 26% |  |  |  | 
C/C(=N\Nc1nc2ccccc2n1CC1CCN(c2ccc3c(c2)C(=O)N(C2CCC(=O)NC2=O)C3=O)CC1)c1ccccn1 (configuration not stated) | 1.52 | 0.36 | 1.13 | 5.1 | 28% | 34% |  |  |  | 
C/C(=N\Nc1nc2ccccc2n1CCNC(=O)C1CC2(CCN(c3ccc4c(c3)C(=O)N(C3CCC(=O)NC3=O)C4=O)CC2)C1)c1ccccn1 (configuration not stated) | 1.11 | 1.06 | 2.94 | 8.63 | 5% | inactive |  |  |  | 
C/C(=N\Nc1nc2ccccc2n1CCNC(=O)CCCCCN[C@H](C(=O)N1C[C@H](O)C[C@H]1C(=O)N[C@@H](C)c1ccc(-c2scnc2C)cc1)C(C)(C)C)c1ccccn1 | 2.53 | 2.75 | 1.59 | 7.14 |  |  | 8 | 15 | Non-toxic | 
C/C(=N\Nc1nc2ccccc2n1CCNC(=O)CCCCCCCCCN[C@H](C(=O)N1C[C@H](O)C[C@H]1C(=O)N[C@@H](C)c1ccc(-c2scnc2C)cc1)C(C)(C)C)c1ccccn1 | 0.35 | 0.13 | 0.09 | 1.11 |  |  | 63 | 61 | Non-toxic | 
C/C(=N\Nc1nc2ccccc2n1CCNC(=O)CN1CCC2(CC1)CCN(c1ccc3c(c1)C(=O)N(C1CCC(=O)NC1=O)C3=O)CC2)c1ccccn1 (configuration not stated) | 6.99 | 7.2 | 5.59 | 7.99 | inactive | inactive |  |  |  | 
C/C(=N\Nc1nc2ccccc2n1C1CN(C2CCN(c3cccc4c3C(=O)N(C3CCC(=O)N(C)C3=O)C4=O)CC2)C1)c1ccccn1 (configuration not stated) |  |  |  |  |  |  |  |  |  | Activity [13]: inactive; Activity [14]: inactive
C/C(=N\Nc1nc2ccccc2n1CC1CCN(CC(=O)N[C@H](C(=O)N2C[C@H](O)C[C@H]2C(=O)N[C@@H](C)c2ccc(-c3scnc3C)cc2)C(C)(C)C)CC1)c1ccccn1 | 0.69 | 0.94 | 0.69 | 2.76 |  |  | 21 | 10 | Non-toxic | 
C/C(=N\Nc1nc2ccccc2n1CCNC(=O)CCCCCCCCN[C@H](C(=O)N1C[C@H](O)C[C@H]1C(=O)N[C@@H](C)c1ccc(-c2scnc2C)cc1)C(C)(C)C)c1ccccn1 | 0.36 | 0.15 | 0.06 | 0.75 |  |  | 68 | 65 | Non-toxic | IC50 (LNCaP): 1.43 µM
CC/C(=C(\c1ccccc1)c1ccc(OCCN(C)C)cc1)c1ccccc1 |  |  |  |  |  |  |  |  |  | Activity [15]: inactive
C/C(=N\Nc1nc2ccccc2n1CCNC(=O)CCCCCCN[C@H](C(=O)N1C[C@H](O)C[C@H]1C(=O)N[C@@H](C)c1ccc(-c2scnc2C)cc1)C(C)(C)C)c1ccccn1 | 1.04 | 0.83 | 0.47 | 3.7 |  |  | 62 | 43 | Non-toxic | 
C/C(=N\Nc1nc2ccccc2n1C1CN(C(=O)C2CN(c3cccc4c3C(=O)N(C3CCC(=O)NC3=O)C4=O)C2)C1)c1ccccn1 (configuration not stated) | 11.8 | 19.1 | 8.24 | 14.8 | inactive | 5% |  |  |  | 
C/C(=N\Nc1nc2ccccc2n1C1CN(c2cccc3c2C(=O)N(C2CCC(=O)NC2=O)C3=O)C1)c1ccccn1 (configuration not stated) | 0.52 | 0.1 | 9.39 | 3.36 | 17% | 16% |  |  |  | 
